The subject of one assay is S. aureus cells. Kind of assay: Lytic assay using purified protein (SYTOX kinetic assay). It is filed as cell-based, Staphylococcus aureus. The procedure: S. aureus cells were grown either to mid-log or to saturation in tryptic soy broth (TSB) at 37° C. with shaking. The cells were harvested by centrifugation and washed once in phosphate buffered saline (PBS: 2.7 mM KCl, 1.5 mM KH2PO4, 8.9 mM Na2HPO4, 136.9 mM NaCl, pH 7.4). The assay was performed in 96-well, black, clear bottom plates from Greiner Bio-One (Monroe, N.C.). The final (250 μl) reaction was composed of 10 μl of P. pastoris culture supernatant, S. aureus cells at OD600=1.5, and 5 μM SYTOX Green (Thermo Fisher Scientific; Waltham, Mass.), all in PBS. Data were collected using SPECTRAMAX GEMINI Fluorescence Microplate Reader (Molecular Devices; Sunnyvale, Calif.) using an excitation/emission of 504/523 nm, and rates were determined from the slope of the steepest linear portion of the trace. Each assay was performed with 500 ng of commercially-sourced lysostaphin (ssLys) as an internal control.
The activity of purified lysostaphin variants was examined using the SYTOX kinetic assay as previously described in Chapter 2, Section 3.2.6. 200 ng of purified enzyme (instead of culture supernatant) was used in each reaction.

The next assay relates to S. aureus strain SA113. Kind of assay: MIC activity relative to LST^WT. It is filed as cell-based, Staphylococcus aureus. The note with it: % fold dilution relative to wild type. As for the experimental part: LST and its derivatives were secreted from P. pastoris. Briefly, recombinant Pichia strains were cultured in a 2.5 L bioreactor (Applicon Biotechnology), and the proteins were captured from the supernatant by polyethylene glycol-6000 (PEG-6000) precipitation and purified to homogeneity by SP SEPHAROSE F.F. cation exchange chromatography. Endotoxin was removed from the protein preparation by TRITON-X114 extraction (Liu, et al. (1997) Clin. Biochem. 30:455-63). Protein expression levels were estimated by densitometry analysis of SDS-PAGE gels.

The subject of assay [1] is MRSA strain USA400. Kind of assay: S. aureus recurrent bacteremia model, in vivo efficacy. Also noted: species or system DR4 mice. The note with it: 500 μg i.v. The procedure: Prior to bacterial challenge, the immune systems of DR4 mice (N=3 per group) were primed 3-times with weekly subcutaneous injections of 100 μg LST^WT or Lib5 variant in sterile phosphate buffered saline (PBS: 2.7 mM KCl, 1.5 mM KH2PO4, 8.9 mM Na2HPO4, 136.9 mM NaCl, pH 7.4). These immunizations and boosts contained no adjuvant. Anti-LST antibody titers were determined as described above. For the first cycle of infection and treatment, mice were challenged with intraperitoneal administration of 2×10^8 CFU Staphylococcus aureus strain USA400 in a 3% suspension of porcine mucin, and one hour later were treated by intravenous tail vein administration of 500 μg of LST^WT or Lib5 variant in sterile PBS. Mice that were rescued by the enzyme treatment underwent subsequent infection and treatment cycles at weekly intervals. To compensate for development of innate murine antibacterial immunity following the first bacterial exposure, mice were challenged with 1×10^9 CFU USA400 in the second and third cycles, but the treatments remained at 500 μg of the appropriate protein. As a control to verify the lethal bacterial dose in each cycle, one mouse was given a sham treatment of PBS.
Using an S. aureus recurrent bacteremia model, the extent to which LST immunogenicity impacted in vivo efficacy was subsequently evaluated. […]

The subject of assay [2] is MRSA strain USA400. Put plainly: In vivo efficacy of F11, intraperitoneal MRSA challenge. Also noted: species or system C57BL/6 mice. To be noted: 100 μg single bolus i.v. 1 h after 2×10^8 MRSA i.p. As for the experimental part:
Mice were challenged with an intraperitoneal injection of 2×10^8 MRSA strain USA400, and 1 hour later the mice were treated with 100 μg wild-type LST, F11 or PBS. The percent survival is shown.
The in vivo efficacy of the F11 variant was further analyzed in C57BL/6 mice. Mice were challenged with an intraperitoneal injection of 2×10^8 MRSA strain USA400, and 1 hour later the mice were treated with 100 μg wild-type LST, F11 or PBS, administered as a single bolus intravenous injection. The survival rate for both protein treatments was 1/3. The 100 μg dosage was selected because wild-type LST is known to be only partially efficacious at this dose.

Assay [3] has as its system MRSA strain USA400. Put plainly: Efficacy of F13 in immunized mice, MRSA challenge. It is filed as in vivo, DR4 HLA transgenic mice. To be noted: 500 μg i.v. 1 h after 2×10^8 MRSA i.p. The procedure:
The immunogenicity of the F13 variant was compared to wild-type LST in DR4 HLA transgenic mice, i.e., mice bearing partially humanized immune systems. 100 μg of wild-type LST or variant F13 were mixed with complete Freund's adjuvant and injected subcutaneously into DR4 mice. Fourteen days later, antibody titers were measured by ELISA. Variant F13 yielded more than 200-fold lower antibody titers compared to wild-type LST. To assess the impact of antibody titers on antibacterial efficacy, the mice were challenged with an intraperitoneal injection of 2×10^8 MRSA strain USA400, and 1 hour later the mice were treated with 500 μg wild-type LST, variant F13, or PBS, administered as a single bolus intravenous injection. Both mice receiving PBS sham treatments died as did both mice treated with wild-type LST. In contrast, both mice treated with variant F13 survived. Thus, the reduced immunogenicity of F13 conferred enhanced therapeutic efficacy in vivo.

The values below come from US11091749B2, “Deimmunized lysostaphin and methods of use” (TRUSTEES OF DARTMOUTH COLLEGE, priority 2014, dated 2021).

Take “Wild-Type: wild-type lysostaphin (SEQ ID NO:49) produced in P. pastoris; aglycosylated Ser126Pro backbone in the design studies [reference compound]”: the “% Wild-Type Activity” value with S. aureus cells (200 ng purified enzyme) stood at 100%. Moreover, the “% WT Lytic Rate” value in the assay on S. aureus cells (biological duplicates) is listed as 100 ± 30%. Also, the “Activity (% WT)” value with S. aureus strain SA113 is listed as 100 % WT. Also, the rescue from infection result was “rescued” with MRSA strain USA400 [1] (first cycle, 2×10^8 CFU i.p.) and “failed to rescue any of the three treated mice” with MRSA strain USA400 [1] (second cycle, 10^9 CFU). For the same substance, in the assay on MRSA strain USA400 [2], the survival rate is 1/3. In addition, the survival entry in the assay on MRSA strain USA400 [3] was “died”.
